Structures can show the parent of a compound that is named as a salt.
How the values were obtained:
sonic hedgehog pathway [1] = experiment: Human hedgehog reporter assay Daoy-GliLuc (DGL); format: cell-based; settings: Daoy human medulloblastoma cells, gli-luciferase reporter; read-out: Daoy Avg. EC50
Description: (§1) Mouse (TM3: mouse Leydig cells; S12: mouse embryonic mesenchymal cells) and human (Daoy: human medulloblastoma cell; HepM: human embryonic palatal mesenchymal cell) cell lines are used to screen small molecules for their ability to modulate the activity of the sonic hedgehog pathway (Table 1, Table 2, and Table 3). Stable hedgehog pathway reporter cell lines are established by specific antibiotic selection following transfection of a reporter plasmid containing a luciferase gene located directly downstream from the gli promoter. Consequently, any observable changes in cellular luciferase activity may be attributed to changes in sonic hedgehog pathway activity in mouse and human cells, respectively, since gli is the major by-product of this pathway. To calculate activity, we generate an eleven point dose curve for each compound using 1:3 dilutions in 96 well assay plates. Each plate tested also contains low and high control to establish maximal pathway activation so to establish/compare a percentage activation of each tested compound (AMAX) on respective plates.
(§2) Stable hedgehog pathway reporter cell lines are established following specific antibiotic selection following transfection of a reporter plasmid
(§3) In short, typically cells are plated in MicroTiter-plates at 10,000-20,000 cells per well, in growth media (containing 10%-20% FBS). After 48-72 hrs (HGL and DGL respectively) the media in the assay plates is switched to low-serum containing media (0.5% FBS). At that time compounds are added (at 1-5 μM) to the assay plates, in the presence or absence of hedgehog protein (octyl-modified version; 1-5 ng/ml). After another 24 hrs of incubation, the media from the assay plates is discarded and replaced with luciferase assay-mix. Subsequently, plates are incubated at RT for ˜15-30 mins and then read in a luminometer. [note: addition of the Hedgehog protein, although not critical, will sensitize the assay allowing the identification of weak actives].

sonic hedgehog pathway [2] = experiment: Hedgehog reporter assay (gli-luciferase) in TM3 cells; format: cell-based, mouse; settings: read-out: TM3 Avg. EC50
Description: as §1, §2, §3

sonic hedgehog pathway [3] = experiment: Human hedgehog reporter assay HEPM-GliLuc (HGL); format: cell-based; settings: read-out: HEPM Avg. EC50
Description: as §1, §2, §3

[4] = TM3 mouse Leydig cells, gli-luciferase reporter
[5] = HepM human embryonic palatal mesenchymal cells, gli-luciferase reporter

Row | SMILES | EC50 (sonic hedgehog pathway [1]) [nM] | EC50 (sonic hedgehog pathway [2]; [4]) [nM] | EC50 (sonic hedgehog pathway [3]; [5]) [nM] | EC50 (sonic hedgehog pathway [3]; Homo sapiens) [nM] | EC50 (sonic hedgehog pathway [2]; Mus musculus, Leydig) [nM]
1 | CNC1CCC(N(Cc2cc(-c3ccc(OC(F)(F)F)cc3)ccc2OC)C(=O)c2sc3ccccc3c2Cl)CC1 (stereo not shown) [Compound 307, 3-Chloro-benzo[b]thiophene-2-carboxylic acid (4-methoxy-4′-trifluoromethoxy-biphenyl-3-ylmethyl)-(4-methylamino-cyclohexyl)-amide hydrochloride] | < 50 | < 50 |  |  | 
2 | CNC1CCC(N(Cc2cc(-c3ccnc(C(=O)O)c3)ccc2OC)C(=O)c2sc3c(F)ccc(F)c3c2Cl)CC1 (stereo not shown) [Compound R6, 4-(3-{[(3-Chloro-4,7-difluoro-benzo[b]thiophene-2-carbonyl)-(4-methylamino-cyclohexyl)-amino]-methyl}-4-methoxy-phenyl)-pyridine-2-carboxylic acid bis(trifluoroacetate)] |  | 50 to 250 | 50 to 250 |  | 
3 | CNC1CCC(N(Cc2cc(-c3ccncc3)ccc2OC)C(=O)c2sc3ccccc3c2Cl)CC1 (stereo not shown) [Compound 339 (R12), 3-Chloro-benzo[b]thiophene-2-carboxylic acid (2-methoxy-5-pyridin-4-yl-benzyl)-(4-methylamino-cyclohexyl)-amide dihydrochloride] |  | < 50 | < 50 |  | 
4 | CN[C@H]1CC[C@@H](N(Cc2cc(-c3ccc(C(C)=O)cc3)ccc2OC)C(=O)C2=C(Cl)c3c(F)ccc(F)c3C2)CC1 [Compound R8, 3-Chloro-4,7-difluoro-benzo[b]thiophene-2-carboxylic acid(4′-carbamoyl-4-methoxy-biphenyl-3-ylmethyl)-(4-methylamino-cyclohexyl)-amide hydrochloride] |  | < 50 | < 50 |  | 
5 | CNC1CCC(N(Cc2cc(-c3cccc(C#N)c3)ccc2OC)C(=O)c2sc3c(F)ccc(F)c3c2Cl)CC1 (stereo not shown) [Compound 337, 3-Chloro-4,7-difluoro-benzo[b]thiophene-2-carboxylic acid (3′-cyano-4-methoxy-biphenyl-3-ylmethyl)-(4-methylamino-cyclohexyl)-amide hydrochloride] |  | < 50 | < 50 |  | 
6 | CCOc1ccc(-c2ccccc2)cc1CN(C(=O)c1sc2ccccc2c1Cl)C1CCC(NC)CC1 (stereo not shown) [Compound 313, 3-Chloro-benzo[b]thiophene-2-carboxylic acid (4-ethoxy-biphenyl-3-ylmethyl)-(4-methylamino-cyclohexyl)-amide hydrochloride] | < 50 | 50 to 250 |  |  | 
7 | CCOc1ccc(-c2ccc(C(F)(F)F)cc2)cc1CN(C(=O)c1sc2ccccc2c1Cl)C1CCC(NC)CC1 (stereo not shown) [Compound 309, 3-Chloro-benzo[b]thiophene-2-carboxylic acid (4-ethoxy-4′-trifluoromethyl-biphenyl-3-ylmethyl)-(4-methylamino-cyclohexyl)-amide hydrochloride] | < 50 | 50 to 250 |  |  | 
8 | CNC1CCC(N(Cc2cc(-c3ccc(S(C)(=O)=O)cc3)ccc2OC)C(=O)c2sc3ccccc3c2Cl)CC1 (stereo not shown) [Compound R7, 3-Chloro-benzo[b]thiophene-2-carboxylic acid (4′-methanesulfonyl-4-methoxy-biphenyl-3-ylmethyl)-(4-methylamino-cyclohexyl)-amide hydrochloride] |  |  |  | < 50 | < 50
9 | CCOc1ccc(-c2ccc(OC)cc2)cc1CN(C(=O)c1sc2ccccc2c1Cl)C1CCC(NC)CC1 (stereo not shown) [Compound 312, 3-Chloro-benzo[b]thiophene-2-carboxylic acid (4-ethoxy-4′-methoxy-biphenyl-3-ylmethyl)-(4-methylamino-cyclohexyl)-amide hydrochloride] | 50 to 250 |  |  |  | 

Now from value to molecule, other results behind:

Row | EC50 (sonic hedgehog pathway [1]) [nM] | EC50 (sonic hedgehog pathway [2]; [4]) [nM] | SMILES | EC50 (sonic hedgehog pathway [3]; [5]) [nM] | EC50 (sonic hedgehog pathway [3]; Homo sapiens) [nM] | EC50 (sonic hedgehog pathway [2]; Mus musculus, Leydig) [nM]
10 |  | < 50 | CNC1CCC(N(Cc2cc(-c3cc(C)nc(C)c3)ccc2OC)C(=O)c2sc3ccccc3c2Cl)CC1 (stereo not shown) [Compound R1, 3-Chloro-benzo[b]thiophene-2-carboxylic acid[5-(2,6-dimethyl-pyridin-4-yl)-2-methoxy-benzyl]-(4-methylamino-cyclohexyl)-amide dihydrochloride] | 50 to 250 |  | 
11 | < 50 | < 50 | CN[C@H]1CC[C@H](N(Cc2cc(-c3cccc(C(C)=O)c3)ccc2OC)C(=O)c2sc3cccc(F)c3c2Cl)CC1 [Compound 363, 3-Chloro-4-fluoro-benzo[b]thiophene-2-carboxylic acid (3′-acetyl-4-methoxy-biphenyl-3-ylmethyl)-(4-methylamino-cyclohexyl)-amide hydrochloride] |  |  | 
12 | < 50 | 50 to 250 | CN[C@H]1CC[C@H](N(Cc2cc(-c3cnc(N)nc3)ccc2OC)C(=O)c2sc3ccccc3c2Cl)CC1 [Compound 323, 3-Chloro-benzo[b]thiophene-2-carboxylic acid[5-(2-amino-pyrimidin-5-yl)-2-methoxy-benzyl]-(4-methylamino-cyclohexyl)-amide dihydrochloride] |  |  | 
13 |  | 50 to 250 | CCOc1ccc(-c2ccc(C#N)cc2)cc1CN(C(=O)c1sc2ccccc2c1Cl)C1CCC(NC)CC1 (stereo not shown) [Compound R2, 3-Chloro-benzo[b]thiophene-2-carboxylic acid (4′-cyano-4-ethoxy-biphenyl-3-ylmethyl)-(4-methylamino-cyclohexyl)-amide hydrochloride] | 50 to 250 |  | 
14 |  | < 50 | CCOc1ccc(-c2ccc(C(=O)C(F)(F)F)cc2)cc1CN(C(=O)c1sc2c(F)ccc(C)c2c1Cl)[C@H]1CC[C@@H](NC)CC1 [Compound 341, 3-Chloro-4,7-difluoro-benzo[b]thiophene-2-carboxylic acid[4-ethoxy-4′-(2,2,2-trifluoro-acetyl)-biphenyl-3-ylmethyl]-(4-methylamino-cyclohexyl)-amide trifluoroacetate] | 50 to 250 |  | 
15 | < 50 | < 50 | CN[C@H]1CC[C@H](N(Cc2cc(-c3ccc(F)cc3)ccc2OC)C(=O)c2sc3ccccc3c2Cl)CC1 [Compound 314, 3-Chloro-benzo[b]thiophene-2-carboxylic acid (4′-fluoro-4-methoxy-biphenyl-3-ylmethyl)-(4-methylamino-cyclohexyl)-amide hydrochloride] |  |  | 
16 |  | < 50 | CNC1CCC(N(Cc2cc(-c3ccnc(C)c3)ccc2OC)C(=O)c2sc3ccccc3c2Cl)CC1 (stereo not shown) [331 (R11), 3-Chloro-benzo[b]thiophene-2-carboxylic acid[2-methoxy-5-(2-methyl-pyridin-4-yl)-benzyl]-(4-methylamino-cyclohexyl)-amide dihydrochloride] | < 50 |  | 
17 | 50 to 250 | 250 to 1000 | CNc1ncc(-c2ccc(OC)c(CN(C(=O)c3sc4ccccc4c3Cl)[C@H]3CC[C@H](NC)CC3)c2)cn1 [Compound 322, 3-Chloro-benzo[b]thiophene-2-carboxylic acid[2-methoxy-5-(2-methylamino-pyrimidin-5-yl)-benzyl]-(4-methylamino-cyclohexyl)-amide dihydrochloride] |  |  | 
18 | < 50 | 50 to 250 | CNC1CCC(N(Cc2cc(-c3ccc(C(F)(F)F)cc3)ccc2OC)C(=O)c2sc3ccccc3c2Cl)CC1 (stereo not shown) [Compound 306, 3-Chloro-benzo[b]thiophene-2-carboxylic acid (4-methoxy-4′-trifluoromethyl-biphenyl-3-ylmethyl)-(4-methylamino-cyclohexyl)-amide trifluoroacetate] |  |  | 
19 | < 50 | < 50 | CNC1CCC(N(Cc2cc(-c3ccc(Cl)cc3)ccc2OC)C(=O)c2sc3ccccc3c2Cl)CC1 (stereo not shown) [Compound 308, 3-Chloro-benzo[b]thiophene-2-carboxylic acid (4′-chloro-4-methoxy-biphenyl-3-ylmethyl)-(4-methylamino-cyclohexyl)-amide hydrochloride] |  |  | 
